Data taken from patent US8889677B2, “Substituted triazoles useful as mGlu5 receptor modulators” (Boehringer Ingellheim International GmbH, priority 2012, dated 2014).

Molecular target: T1, human recombinant mGluR5 (Homo sapiens, UniProt P41594)
T1 construct: expressed in transfected cells; host or cells: HEK 293 cell line cultured with tetracycline, hygromycin and geneticin; tetracycline removed 3-7 days before the assay
Test: positive modulation of mGluR5, calcium based FLIPR assay in HEK 293 cells
Settings: HEK 293 cell line expressing human recombinant mGluR5; EC50 of the modulation of the glutamate response (glutamate approx. 5% basal stimulation); peak height of Ca release fluorescence signal
Experimental: The positive modulation of mGluR5 is measured in a HEK 293 cell line expressing human recombinant mGluR5 and is detected with calcium based FLIPR assay. The cells are cultured with DMEM supplemented with 10% FCS, 2 μg/mL tetracycline, 100 μg/mL hygromycin and 500 μg/mL gneticin. The cell culture media is exchanged for tetracycline-free cell culture media 3-7 days before the assay. One day before the assay the cell culture medium is exchanged to DMEM without glutamine and phenol red and supplemented with 10% FCS, 100 μg/mL hygromycin and 500 μg/mL geneticin. On the assay day, the medium of the subconfluent cultures is removed and the cells are detached by addition of 2.5 ml EDTA (0.02%) per 175 cm2 culture flask for 1 minute. The cells are resuspend in Ringer solution (140 mM NaCl, 5 mM KCl, 2.5 mM CaCl2, 1.5 mM MgCl2, 5 mM Glucose, 10 mM Hepes; adjusted to pH 7.4 with NaOH), pooled and Ringer solution added to adjust the volume to 50 mL. The cell suspension is centrifuged for […] at 1500 U/min (425 g). The supernatant is removed and the cells washed a second time with 50 ml fresh Ringer solution and centrifuged again as before. The supernatant is again removed and the pellet resuspended in Ringer solution to 1,000,000 cells/ml (1×10^6 cells/mL). The cells are plated onto BD BioCoat Poly-D-Lysine 384 well plates (20.000 cells/well; 20 μl/well). The lid covered plates are then incubated until use at 37° C./10% CO2. For dye loading, 20 μl of Calcium-4 assay kit solution (prepared according to the manufacturer's description in Ringer solution) are added to the cells and the plates are incubated for 80 min 37° C. and then 10 min at room temperature.
Controls, Compound Dilution and Assay Execution:
Each assay plate contained wells with “high” and “low” controls:
Low controls 1% DMSO/ringer solution+basal glutamate activation (defined as 100% CTL).
High controls 10 μM CDPPB+basal glutamate activation (defined as 200% CTL).
Test compounds are dissolved and diluted in DMSO to 100-fold the desired concentrations. In a second step, the compounds are diluted in Ringer solution such that the compounds are 4-fold more concentrated than the desired final assay concentration. The final DMSO concentration was 1%.
20 μl of each compound solution are then transferred to the assay plate and the Ca2+ kinetic is measured to determine any intrinsic compound activity. After 5 min incubation in the FLIPR device, the second stimulation with 20 μl of glutamate in Ringer solution (glutamate concentration adjusted to approximately 5% basal stimulation of the maximal possible glutamate effect) is added and the kinetic Ca2+ response of the wells was measured for the modulation effect.
The peak height of the Ca release related fluorescence signal (9-66) is used for the EC50. The EC50 of the modulation is calculated over a nonlinear regression with GraphPad Prism (Table 1).

T1 sequence (P41594 21-1212): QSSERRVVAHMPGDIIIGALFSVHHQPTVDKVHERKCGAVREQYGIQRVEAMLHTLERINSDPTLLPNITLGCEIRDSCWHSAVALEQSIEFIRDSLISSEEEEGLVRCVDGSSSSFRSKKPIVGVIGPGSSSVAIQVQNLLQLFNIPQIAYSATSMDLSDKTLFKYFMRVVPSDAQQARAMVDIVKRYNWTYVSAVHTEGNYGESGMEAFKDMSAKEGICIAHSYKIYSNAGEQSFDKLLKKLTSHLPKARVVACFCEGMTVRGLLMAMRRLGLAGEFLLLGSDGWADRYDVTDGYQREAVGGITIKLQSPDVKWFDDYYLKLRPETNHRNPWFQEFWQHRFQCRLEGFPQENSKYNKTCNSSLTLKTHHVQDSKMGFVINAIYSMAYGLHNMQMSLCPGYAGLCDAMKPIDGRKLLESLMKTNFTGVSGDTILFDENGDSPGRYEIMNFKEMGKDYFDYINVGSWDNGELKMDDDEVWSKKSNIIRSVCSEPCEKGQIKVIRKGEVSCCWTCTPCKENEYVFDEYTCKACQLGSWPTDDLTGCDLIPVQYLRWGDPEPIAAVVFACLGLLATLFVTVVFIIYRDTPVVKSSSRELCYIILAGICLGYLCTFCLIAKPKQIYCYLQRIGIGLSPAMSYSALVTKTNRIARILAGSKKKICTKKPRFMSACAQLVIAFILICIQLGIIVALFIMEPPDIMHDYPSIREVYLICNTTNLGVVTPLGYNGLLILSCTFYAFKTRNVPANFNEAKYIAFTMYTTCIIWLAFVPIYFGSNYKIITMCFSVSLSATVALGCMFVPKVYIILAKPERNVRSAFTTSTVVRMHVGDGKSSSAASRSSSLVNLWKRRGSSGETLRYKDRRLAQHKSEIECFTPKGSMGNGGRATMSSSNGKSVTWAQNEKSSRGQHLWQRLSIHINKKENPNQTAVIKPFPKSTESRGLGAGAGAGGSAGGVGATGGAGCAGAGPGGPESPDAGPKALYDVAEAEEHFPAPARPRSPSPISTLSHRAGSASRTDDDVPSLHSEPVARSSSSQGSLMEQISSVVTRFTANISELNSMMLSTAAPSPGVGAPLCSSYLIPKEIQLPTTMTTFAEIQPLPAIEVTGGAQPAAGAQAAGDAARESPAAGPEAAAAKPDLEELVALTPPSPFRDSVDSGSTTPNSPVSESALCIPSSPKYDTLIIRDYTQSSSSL

Structure (SMILES)	EC50 [nM]
CCOc1cc(N2CCN(C(=O)Cn3nc(-c4ccc(F)cc4)nc3-c3ccc(F)cc3)CC2)ncn1 [Example 07.06.02.]	70
CCC(C)c1nc(-c2ccc(F)c(C)c2)nn1CC(=O)N1CCN(c2ccccn2)CC1 (stereo not drawn) [Example 07.04.102.]	998
COc1cnnc(N2CCN(C(=O)Cn3nc(-c4ccc(F)cc4)nc3-c3ccc(F)cc3)CC2)c1 [Example 07.04.017.]	421
CCCc1nc(-c2ccc(F)c(C)c2)nn1CC(=O)N1CCN(c2cc(C)ccn2)CC1 [Example 07.04.082.]	306
COc1ccc(Cl)cc1N1CCN(C(=O)Cn2nc(-c3ccc(F)cc3)nc2-c2ccc(F)cc2)CC1 [Example 07.04.002.]	2000
Cc1cc(-c2nc(C3CCCC3)n(CC(=O)N3CCN(c4ccccn4)CC3)n2)ccc1F [Example 07.04.113.]	263
COc1cccc(-c2nc(-c3ccc(F)cc3)nn2CC(=O)N2CCN(c3ccccn3)CC2)c1 [Example 07.04.050.]	459
O=C(Cn1nc(-c2ccccc2)nc1-c1ccc(CN2CCOCC2)cc1)N1CCN(c2ncccn2)CC1 [Example 07.10.28.]	804
COCCOc1cc(N2CCN(C(=O)Cn3nc(-c4ccc(F)cc4)nc3-c3ccc(F)cc3)CC2)ncn1 [Example 07.06.03.]	101
CCCc1nc(-c2ccc(F)c(C)c2)nn1CC(=O)N1CCN(c2ncccn2)CC1 [Example 07.04.085.]	379
CCCCc1nc(-c2ccc(F)c(C)c2)nn1CC(=O)N1CCN(c2cc(OC)ncn2)CC1 [Example 07.04.119.]	298
Cc1cc(-c2nc(CCC(C)C)n(CC(=O)N3CCN(c4ncccn4)CC3)n2)ccc1F [Example 07.04.122.]	140
COc1cccc(-c2nc(-c3ccc(F)cc3)n(CC(=O)N3CCN(c4ccccn4)CC3)n2)c1 [Example 07.04.049.]	37
CCCCCc1nc(-c2ccc(F)c(C)c2)nn1CC(=O)N1CCN(c2cc(C)ccn2)CC1 [Example 07.04.125.]	109
O=C(Cn1nc(-c2ccc(F)cc2)nc1-c1ccc(F)cc1)N1CCN(c2cc(OC[C@H]3CCCO3)ncn2)CC1 [Example 07.09.03.]	58
O=C(Cn1nc(-c2ccc(F)cc2)nc1-c1ccc(F)cc1)N1CCN(c2cc(OCCn3ccnc3)ncn2)CC1 [Example 07.09.17.]	106
CCc1ccnc(N2CCN(C(=O)Cn3nc(-c4ccc(F)cc4)nc3-c3ccc(F)cc3)CC2)c1 [Example 07.05.02.]	43
COc1ccc(-c2nc(C3CCCCC3)n(CC(=O)N3CCN(c4ccccn4)CC3)n2)c(F)c1 [Example 07.04.022.]	1040
Cc1cc(-c2nc(CC(C)C)n(CC(=O)N3CCN(c4ncccn4)CC3)n2)ccc1F [Example 07.04.108.]	317
COc1cccc(N2CCN(C(=O)Cn3nc(-c4ccc(F)cc4)nc3-c3ccc(F)cc3)CC2)n1 [Example 07.02.03.]	220
CNc1cc(N2CCN(C(=O)Cn3nc(-c4ccc(F)cc4)nc3-c3ccc(F)cc3)CC2)ncn1 [Example 07.08.24.]	191
CCCCCc1nc(-c2ccc(F)c(C)c2)nn1CC(=O)N1CCN(c2ccccn2)CC1 [Example 07.04.124.]	125
O=C(Cn1nc(-c2ccc(F)cc2)nc1-c1ccc(F)cc1)N1CCN(c2cc(OCCOCCOCCO)ncn2)CC1 [Example 07.09.16.]	173
COc1ccc(-c2nc(C3CCCCC3)n(CC(=O)N3CCN(c4cc(C)ccn4)CC3)n2)c(F)c1 [Example 07.04.021.]	647

Structure (SMILES)	EC50 [nM]
O=C1CC(COc2cc(N3CCN(C(=O)Cn4nc(-c5ccc(F)cc5)nc4-c4ccc(F)cc4)CC3)ncn2)CN1 (stereo not drawn) [Example 07.09.24.]	101
Cc1ccnc(N2CCN(C(=O)Cn3nc(-c4ccc(F)c(C)c4)nc3C3CCCCC3C)CC2)c1 (stereo not drawn) [Example 07.04.134.]	1030
Cc1ccc(-c2nc(-c3ccccc3)n(CC(=O)N3CCN(c4ncccn4)CC3)n2)cc1 [Example 07.10.12.]	23
O=C(Cn1nc(-c2ccc(OC(F)F)cc2)nc1-c1ccccc1)N1CCN(c2ncccn2)CC1 [Example 7.04.165]	13
Cc1cc(C)nc(N2CCN(C(=O)Cn3nc(-c4ccc(F)cc4)nc3-c3ccc(F)cc3)CC2)n1 [Example 07.03.07.]	610
O=C(Cn1nc(-c2ccc(F)cc2)nc1-c1ccc(F)cc1)N1CCN(c2nccc3ccccc23)CC1 [Example 07.04.006.]	899
O=C(Cn1nc(-c2ccc(F)cc2)nc1-c1ccc(F)cc1)N1CCN(c2cc(OCCO)ncn2)CC1 [Example 07.07.01., 2-(3,5-bis-(4-fluoro-phenyl)-(1,2,4)triazol-1-yl)-1-(4-(6-(2-hydroxy-ethoxy)-pyrimidin-4-yl)-piperazin-1-yl)-ethanone]	165
Cc1cc(-c2nc(C(C)C)n(CC(=O)N3CCN(c4ccccn4)CC3)n2)ccc1F [Example 07.04.087.]	904
COc1cc(N2CCN(C(=O)Cn3nc(-c4ccc(F)c(OC)c4)nc3-c3ccc(F)cc3)CC2)ncn1 [Example 07.04.158.]	27
COc1ccc(-c2nc(-c3ccc(F)cc3)n(CC(=O)N3CCN(c4ccccn4)CC3)n2)cc1 [Example 07.04.035.]	40
COc1cc(N2CCN(C(=O)Cn3nc(-c4ccc(F)c(C)c4)nc3CC(C)C)CC2)ncn1 [Example 07.04.109.]	824
O=C(Cn1nc(-c2ccc(F)cc2)nc1-c1ccc(F)cc1)N1CCN(c2cc(OCc3cccnc3)ncn2)CC1 [Example 07.09.22.]	39
CCCCc1nc(-c2ccc(F)c(C)c2)nn1CC(=O)N1CCN(c2ncccn2)CC1 [Example 07.04.117.]	390
O=C(Cn1nc(-c2ccc(F)cc2)nc1C1CCCC1)N1CCN(c2ccccn2)CC1 [Example 07.04.047.]	1380
CN(CCO)CCOc1cc(N2CCN(C(=O)Cn3nc(-c4ccc(F)cc4)nc3-c3ccc(F)cc3)CC2)ncn1 [Example 07.09.25.]	301
O=C(Cn1nc(-c2cccc(F)c2)nc1-c1cccc(F)c1)N1CCN(c2ncccn2)CC1 [Example 07.04.023.]	370
CN(C)c1nccc(N2CCN(C(=O)Cn3nc(-c4ccc(F)cc4)nc3-c3ccc(F)cc3)CC2)n1 [Example 07.03.22.]	476
COc1ccc(-c2nc(C3CCCCC3)n(CC(=O)N3CCN(c4ccccn4)CC3)n2)cc1 [Example 07.02.25.]	424
COc1ccc(-c2nc(-c3ccc(F)cc3)nn2CC(=O)N2CCN(c3cc(OC)ncn3)CC2)cc1 [Example 07.04.042.]	148
O=C(Cn1nc(-c2ccccc2)nc1-c1ccc(OC(F)F)cc1)N1CCN(c2ccccn2)CC1 [Example 7.04.166]	431
Cc1cc(-c2nc(C3CCC(C)CC3)n(CC(=O)N3CCN(c4ccccn4)CC3)n2)ccc1F (stereo not drawn) [Example 07.04.129.]	1320
COCCCCOc1cc(N2CCN(C(=O)Cn3nc(-c4ccc(F)cc4)nc3-c3ccc(F)cc3)CC2)ncn1 [Example 07.09.01., 2-(3,5-Bis-(4-fluoro-phenyl)-(1,2,4)triazol-1-yl]-1-(4-(6-(4-methoxy-butoxy)-pyrimidin-4-yl)-piperazin-1-yl)-ethanone]	68
COc1ccc(-c2nc(-c3ccc(OC)cc3)n(CC(=O)N3CCN(c4ccc(Cl)cn4)CC3)n2)cc1 [Example 07.02.12.]	328
COc1cccc(-c2nc(-c3ccccc3)n(CC(=O)N3CCN(c4ncccn4)CC3)n2)c1 [Example 07.10.10.]	50
